In US20090171105A1 (priority 2006, published 2009):

Columns and labels:
[1] = tested on: Ehrlich's solid tumor; experiment: antitumor activity on experimental tumor strains; format: in vivo; conditions: intraperitoneal and intratumoral introduction, MTD
[2] = tested on: sarcoma 37; experiment: antitumor activity on experimental tumor strains; format: in vivo; conditions: intraperitoneal and intratumoral introduction, MTD
[3] = tested on: lung carcinoma; experiment: antitumor activity on experimental tumor strains; format: in vivo; conditions: intraperitoneal and intratumoral introduction, MTD
[4] = tested on: alveolar mucous cancer of liver PC-1; experiment: antitumor activity on experimental tumor strains; format: in vivo; conditions: alveolar mucous cancer of liver PC-1 of rats; intraperitoneal and intratumoral introduction, MTD
[5] = tested on: Walker carcinosarcoma; experiment: antitumor activity on experimental tumor strains; format: in vivo; conditions: intraperitoneal and intratumoral introduction, MTD
[6] = tested on: RAS-genes; experiment: expression of RAS-genes; format: cell-based
[7] = tested on: sarcoma M-I; experiment: antitumor activity on experimental tumor strains; format: in vivo; conditions: intraperitoneal and intratumoral introduction, MTD
[8] = tested on: connective tissue; experiment: oxidation-reduction processes and metabolism in connective tissue
[9] = tested on: lymphocytic leukemia P-388; experiment: antitumor activity on experimental tumor strains; format: in vivo; conditions: intraperitoneal and intratumoral introduction, MTD
[10] = tested on: tumor cells; experiment: ATP content and apoptosis of tumor cells; format: cell-based
[11] = tested on: T-cellular part of immunity; experiment: immunomodulating activity
[12] = tested on: mamma adenocarcinoma Ca-755; experiment: antitumor activity on experimental tumor strains; format: in vivo; conditions: intraperitoneal and intratumoral introduction, MTD
[13] = tested on: lymphoid leukemia L-1210; experiment: antitumor activity on experimental tumor strains; format: in vivo; conditions: intraperitoneal and intratumoral introduction, MTD
[14] = tested on: interweave tumors, resistant to prospidine, rubomicine and sarcolyzine; experiment: efficiency on drug-resistant interweave tumors; format: in vivo
[15] = target: (Homo sapiens, UniProt P49354+P49356); experiment: inhibition of RAS-oncoprotein farnesylation; format: biochemical
(Homo sapiens, UniProt P49354+P49356), sequence (P49356 whole entry, one chain of several): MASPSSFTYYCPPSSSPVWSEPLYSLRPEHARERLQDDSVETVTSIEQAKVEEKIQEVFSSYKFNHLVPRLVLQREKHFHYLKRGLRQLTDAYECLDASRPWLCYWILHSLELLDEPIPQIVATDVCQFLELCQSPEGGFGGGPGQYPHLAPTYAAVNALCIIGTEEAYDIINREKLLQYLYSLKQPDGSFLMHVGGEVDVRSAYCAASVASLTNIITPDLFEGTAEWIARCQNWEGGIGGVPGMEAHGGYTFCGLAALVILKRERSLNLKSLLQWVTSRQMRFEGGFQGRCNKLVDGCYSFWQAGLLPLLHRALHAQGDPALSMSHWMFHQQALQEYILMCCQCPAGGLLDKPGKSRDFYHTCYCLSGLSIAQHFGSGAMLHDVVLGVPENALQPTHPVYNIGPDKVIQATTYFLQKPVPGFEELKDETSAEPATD

Substance: 1(10)β-epoxy-13-dimethylamino-5,7α,6,11β(H)-guaia-3(4)-en-6,12-olide hydrochloride [Arglabin]
- sensitivity of tumor strain [1]: sensitive
- sensitivity of tumor strain [2]: sensitive
- sensitivity of tumor strain [3]: sensitive
- sensitivity of tumor strain [4]: sensitive
- sensitivity of tumor strain [5]: sensitive
- expression of RAS-genes [6]: reduces
- sensitivity of tumor strain [7]: sensitive
- oxidation-reduction processes and metabolism in a connective tissue [8]: has ability to optimize oxidation-reduction processes and a metabolism in a connective tissue
- sensitivity of tumor strain [9]: sensitive
- ATP content [10]: reduces
- tumor cells apoptosis [10]: invokes tumor cells apoptosis
- correction of immunodepressive effect of cytostatic [11]: has a property to correct immunodepressive effect of cytostatic cells
- immunomodulating activity ([11]; depends on dose): shows primary influence on the T-cellular part of immunity
- sensitivity of tumor strain [12]: sensitive
- sensitivity of tumor strain [13]: sensitive
- efficiency in relation to resistant interweave tumors [14]: shows efficiency
- inhibition of RAS-oncoproteins pharnesilis [15]: competitive inhibitor
